Measured values from paper PMC5382172 (Frontiers in Molecular Neuroscience, 2017).

How the values were obtained:
[1] = biological target: T1, GluClβWT (GLC-2) homomeric receptor (Caenorhabditis elegans, UniProt Q17328); test: Whole-cell patch clamp in CHO cells transfected with GluClβWT subunit alone; type: cell-based; settings: βWT alone, 500 nM IVM, -60 mV
T1 construct: entry codes of the full-length subunits used in this study; expressed in transfected cells; host or cells: CHO cells, transient transfection, pcDNA3.1
T1 sequence (Q17328 23-434): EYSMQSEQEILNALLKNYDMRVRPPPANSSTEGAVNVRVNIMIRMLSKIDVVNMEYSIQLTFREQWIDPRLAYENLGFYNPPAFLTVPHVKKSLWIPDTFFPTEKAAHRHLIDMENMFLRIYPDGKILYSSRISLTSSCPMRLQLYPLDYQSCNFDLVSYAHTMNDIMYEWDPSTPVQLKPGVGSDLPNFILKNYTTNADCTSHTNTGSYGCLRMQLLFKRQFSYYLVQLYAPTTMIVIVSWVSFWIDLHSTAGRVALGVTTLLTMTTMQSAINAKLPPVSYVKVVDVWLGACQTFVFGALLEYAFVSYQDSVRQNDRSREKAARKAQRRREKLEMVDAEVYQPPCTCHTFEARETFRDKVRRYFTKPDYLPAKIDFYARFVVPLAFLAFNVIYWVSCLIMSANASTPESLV
Description: (§1) Chinese hamster ovary (CHO) cells were cultured as previously (Bar-Lev et al., [2011]) in Dulbecco’s Modified Eagle Medium (DMEM) containing 10% fetal calf serum, 2 mM glutamax, 100 Units/ml penicillin G and 100 μg/ml streptomycin, and grown in 5% CO2 at 37°C under 90%–95% humidity. The cells were seeded on glass coverslips (13-mm diameter) placed in a 24-multiwell plate. […] For the expression of GluCl receptors, cells were transiently co-transfected with pcDNA3.1 plasmids containing the ORFs of interest using transit-LT1 transfection reagent (Mirus, Madison, WI, USA), according to the manufacturer’s protocol. The cDNAs encoding the C. elegans GluClα (GLC-1) or its mutated versions and the GluClβ (GLC-2) subunits (200–600 ng per well) were used at 1:1 ratio. The pIRES-CD8 plasmid (200 ng per well) was added to enable the visualization of the expressing cells by beads coated with anti-CD8 antibodies (Invitrogen). […]
(§2) Whole-cell patch clamp recordings were performed as described previously (Bar-Lev et al., [2011]) in CHO cells that were prepared as detailed above. […] The currents were measured with an Axopatch 200B patch-clamp amplifier (Molecular Devices, Sunnyvale, CA, USA) and a Digidata 1440A interface (Molecular Devices). […]

[2] = biological target: T2, GluClαP192Y/βWT receptor (Caenorhabditis elegans, UniProt G5EBR3+Q17328, P192Y); test: Whole-cell patch clamp in CHO cells, GluClαP192Y/βWT receptor; type: cell-based; settings: 500 nM IVM, -60 mV
T2 construct: entry codes of the full-length subunits used in this study; expressed in transfected cells; host or cells: CHO cells, transient co-transfection 1:1, pcDNA3.1
Description: as §1, §2

[3] = biological target: T3, GluClα[SSS→GSD]/βWT receptor (Caenorhabditis elegans, UniProt G5EBR3+Q17328, S236G/S238D); test: Whole-cell patch clamp in CHO cells, GluClα[SSS→GSD]/βWT receptor; type: cell-based; settings: 500 nM IVM, -60 mV
T3 construct: entry codes of the full-length subunits used in this study; expressed in transfected cells; host or cells: CHO cells, transient co-transfection 1:1, pcDNA3.1
Description: as §1, §2

[4] = tested on: wild type GluClα/βR; set-up: method as in Cully et al., [1994]; settings: 5 nM IVM, Xenopus oocytes; ref Cully et al., [1994]; cited from earlier work

T3 sequence (G5EBR3 21-461 S236G/S238D, one chain of several): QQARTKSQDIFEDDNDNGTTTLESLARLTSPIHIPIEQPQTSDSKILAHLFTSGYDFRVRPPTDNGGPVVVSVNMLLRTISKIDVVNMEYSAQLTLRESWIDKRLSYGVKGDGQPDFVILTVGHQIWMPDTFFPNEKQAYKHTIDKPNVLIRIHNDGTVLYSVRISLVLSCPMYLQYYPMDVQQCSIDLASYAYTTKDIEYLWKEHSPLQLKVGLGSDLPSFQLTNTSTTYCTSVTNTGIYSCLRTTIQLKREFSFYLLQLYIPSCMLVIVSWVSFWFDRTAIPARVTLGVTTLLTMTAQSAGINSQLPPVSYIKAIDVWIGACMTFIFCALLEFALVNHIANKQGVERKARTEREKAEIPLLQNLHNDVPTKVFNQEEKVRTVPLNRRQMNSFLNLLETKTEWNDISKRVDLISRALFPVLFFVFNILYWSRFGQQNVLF
T2 sequence (G5EBR3 21-461 P192Y, one chain of several): as the sequence (G5EBR3 21-461 S236G/S238D, one chain of several) above, with P172Y, G216S, D218S counted along it

CC[C@H](C)[C@H]1O[C@]2(CC[C@@H]1C)C[C@@H]1C[C@@H](C/C=C(\C)[C@@H](O[C@H]3C[C@H](OC)[C@@H](O[C@H]4C[C@H](OC)[C@@H](O)[C@H](C)O4)[C@H](C)O3)[C@@H](C)/C=C/C=C3\CO[C@@H]4[C@H](O)C(C)=C[C@@H](C(=O)O1)[C@]34O)O2 [IVM, ivermectin]
IVM (500 nM) Amplitude [1]: 0.0 ± 0.0 (10) nA | IVM (500 nM) Amplitude [2]: 1.2 ± 0.2 nA | IVM (500 nM) Amplitude [3]: 1.8 ± 0.4 nA | potentiation of Glu-sensitive currents by IVM [4]: ~ 5 fold
